Laboratory results as given in patent US7863289B2, “Compounds and methods for kinase modulation, and indications therefor” (Plexxikon, Inc., priority 2006, dated 2011).

Key:
Format in all cases: biochemical
Kit = Kit (Homo sapiens, UniProt P10721); assay: Kinase activity assay, Kit; conditions: under the test conditions employed; read-out: activity toward kinase Kit, IC50
Excerpt: (§1) Assays for the activity of kinases, including, but not limited to, B-Raf, B-Raf V600E, B-Raf […] and c-Raf-1 are known in the art, for example as described in U.S. patent application Ser. No. 11/473,347 (see Iso, PCT publication WO2007002433), the disclosure of which is hereby incorporated by reference in its entirety.

B-Raf = B-Raf (Homo sapiens, UniProt P15056); assay: Kinase activity assay, B-Raf; conditions: under the test conditions employed; read-out: activity toward kinase B-Raf, IC50
Excerpt: as §1

B-Raf V600E = B-Raf V600E (Homo sapiens, UniProt P15056, V600E); assay: Kinase activity assay, B-Raf V600E; conditions: under the test conditions employed; read-out: activity toward kinase B-Raf V600E, IC50
Excerpt: as §1

Kdr = Kdr (Homo sapiens, UniProt P35968); assay: Kinase activity assay, Kdr; conditions: under the test conditions employed; read-out: activity toward kinase Kdr, IC50
Excerpt: as §1

Fms = Fms (Homo sapiens, UniProt P07333); assay: Kinase activity assay, Fms; conditions: under the test conditions employed; read-out: activity toward kinase Fms, IC50
Excerpt: as §1

c-Raf-1 = c-Raf-1 (Homo sapiens, UniProt P04049); assay: Kinase activity assay, c-Raf-1; conditions: under the test conditions employed; read-out: activity toward kinase c-Raf-1, IC50
Excerpt: as §1

Src = Src (Homo sapiens, UniProt P12931); assay: Kinase activity assay, Src; conditions: under the test conditions employed; read-out: activity toward kinase Src, IC50
Excerpt: as §1

Kdr, sequence (P35968 20-1356): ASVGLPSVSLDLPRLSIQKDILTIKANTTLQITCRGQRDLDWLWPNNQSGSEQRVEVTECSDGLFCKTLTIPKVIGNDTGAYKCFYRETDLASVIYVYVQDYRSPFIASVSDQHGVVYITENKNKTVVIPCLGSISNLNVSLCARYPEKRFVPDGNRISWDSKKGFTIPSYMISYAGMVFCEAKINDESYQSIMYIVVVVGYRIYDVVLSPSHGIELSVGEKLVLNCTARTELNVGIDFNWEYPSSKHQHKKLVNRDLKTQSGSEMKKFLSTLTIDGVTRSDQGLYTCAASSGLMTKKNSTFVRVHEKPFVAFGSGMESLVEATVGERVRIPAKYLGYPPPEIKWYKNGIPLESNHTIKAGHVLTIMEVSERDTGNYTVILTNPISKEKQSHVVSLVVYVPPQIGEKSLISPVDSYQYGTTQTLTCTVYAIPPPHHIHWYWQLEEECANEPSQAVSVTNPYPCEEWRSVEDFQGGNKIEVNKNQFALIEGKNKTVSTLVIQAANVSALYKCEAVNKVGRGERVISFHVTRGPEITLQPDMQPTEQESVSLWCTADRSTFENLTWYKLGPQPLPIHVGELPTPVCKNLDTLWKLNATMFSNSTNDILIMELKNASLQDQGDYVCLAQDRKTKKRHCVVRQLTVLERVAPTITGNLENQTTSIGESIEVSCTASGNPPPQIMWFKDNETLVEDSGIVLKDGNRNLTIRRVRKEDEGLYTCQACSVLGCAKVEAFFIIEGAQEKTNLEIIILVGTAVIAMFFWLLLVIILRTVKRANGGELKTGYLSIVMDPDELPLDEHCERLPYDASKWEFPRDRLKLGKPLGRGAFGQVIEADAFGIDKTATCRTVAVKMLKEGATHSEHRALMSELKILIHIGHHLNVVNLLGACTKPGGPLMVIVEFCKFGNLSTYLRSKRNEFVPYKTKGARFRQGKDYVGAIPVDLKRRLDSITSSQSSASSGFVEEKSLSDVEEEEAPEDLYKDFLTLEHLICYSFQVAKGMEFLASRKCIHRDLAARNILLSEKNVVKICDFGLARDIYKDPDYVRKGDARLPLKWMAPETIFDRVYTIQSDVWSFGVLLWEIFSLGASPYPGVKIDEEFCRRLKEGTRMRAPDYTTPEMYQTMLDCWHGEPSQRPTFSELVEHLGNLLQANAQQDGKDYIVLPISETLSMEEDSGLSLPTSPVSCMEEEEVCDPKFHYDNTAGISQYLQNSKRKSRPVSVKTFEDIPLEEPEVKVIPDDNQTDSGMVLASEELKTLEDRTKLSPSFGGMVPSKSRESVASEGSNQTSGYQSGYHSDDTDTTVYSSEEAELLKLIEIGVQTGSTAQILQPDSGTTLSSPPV
B-Raf V600E, sequence (P15056 whole entry V600E): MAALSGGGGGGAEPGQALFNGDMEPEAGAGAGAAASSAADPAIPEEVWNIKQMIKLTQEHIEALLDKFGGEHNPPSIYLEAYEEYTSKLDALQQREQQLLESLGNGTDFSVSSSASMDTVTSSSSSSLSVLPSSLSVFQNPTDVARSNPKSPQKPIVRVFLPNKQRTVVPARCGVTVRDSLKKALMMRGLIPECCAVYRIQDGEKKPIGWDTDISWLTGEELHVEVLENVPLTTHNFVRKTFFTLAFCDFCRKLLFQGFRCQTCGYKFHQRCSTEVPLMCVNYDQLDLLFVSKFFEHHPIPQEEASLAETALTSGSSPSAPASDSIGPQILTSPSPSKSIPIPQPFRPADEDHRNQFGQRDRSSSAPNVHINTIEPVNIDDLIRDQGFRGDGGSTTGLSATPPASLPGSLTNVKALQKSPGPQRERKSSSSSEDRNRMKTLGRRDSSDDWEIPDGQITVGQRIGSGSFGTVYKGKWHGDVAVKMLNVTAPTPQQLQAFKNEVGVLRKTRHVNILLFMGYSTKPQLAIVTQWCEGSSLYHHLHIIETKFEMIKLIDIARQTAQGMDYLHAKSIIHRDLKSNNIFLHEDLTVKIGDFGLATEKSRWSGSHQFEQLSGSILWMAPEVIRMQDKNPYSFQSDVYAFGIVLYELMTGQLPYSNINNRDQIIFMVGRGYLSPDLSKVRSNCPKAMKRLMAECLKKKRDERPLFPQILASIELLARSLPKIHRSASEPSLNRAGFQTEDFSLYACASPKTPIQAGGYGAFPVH
Kit, sequence (P10721 26-976): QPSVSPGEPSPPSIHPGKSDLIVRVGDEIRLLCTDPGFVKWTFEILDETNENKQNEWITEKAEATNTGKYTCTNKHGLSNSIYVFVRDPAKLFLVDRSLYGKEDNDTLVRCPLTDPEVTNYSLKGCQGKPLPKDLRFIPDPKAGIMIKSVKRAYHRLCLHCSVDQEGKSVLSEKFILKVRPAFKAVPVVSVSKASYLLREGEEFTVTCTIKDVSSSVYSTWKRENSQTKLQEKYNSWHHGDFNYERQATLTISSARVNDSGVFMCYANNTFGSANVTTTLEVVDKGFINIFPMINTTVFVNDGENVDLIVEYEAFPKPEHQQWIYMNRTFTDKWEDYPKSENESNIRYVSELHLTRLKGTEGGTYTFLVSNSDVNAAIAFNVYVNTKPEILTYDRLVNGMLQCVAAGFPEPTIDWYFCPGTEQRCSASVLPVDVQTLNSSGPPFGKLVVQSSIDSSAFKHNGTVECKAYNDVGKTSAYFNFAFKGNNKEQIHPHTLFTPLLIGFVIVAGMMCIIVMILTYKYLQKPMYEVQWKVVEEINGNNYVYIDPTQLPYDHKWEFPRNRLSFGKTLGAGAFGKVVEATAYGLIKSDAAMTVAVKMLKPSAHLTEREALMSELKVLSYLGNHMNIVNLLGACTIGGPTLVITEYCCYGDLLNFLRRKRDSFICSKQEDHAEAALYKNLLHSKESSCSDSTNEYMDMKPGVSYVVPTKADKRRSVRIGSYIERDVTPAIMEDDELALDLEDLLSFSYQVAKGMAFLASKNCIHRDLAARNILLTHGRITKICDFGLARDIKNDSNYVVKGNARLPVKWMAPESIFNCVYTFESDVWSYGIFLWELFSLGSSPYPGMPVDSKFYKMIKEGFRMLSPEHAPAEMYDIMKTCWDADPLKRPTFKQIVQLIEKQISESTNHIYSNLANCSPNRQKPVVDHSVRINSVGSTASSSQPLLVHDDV
Src, sequence (P12931 whole entry): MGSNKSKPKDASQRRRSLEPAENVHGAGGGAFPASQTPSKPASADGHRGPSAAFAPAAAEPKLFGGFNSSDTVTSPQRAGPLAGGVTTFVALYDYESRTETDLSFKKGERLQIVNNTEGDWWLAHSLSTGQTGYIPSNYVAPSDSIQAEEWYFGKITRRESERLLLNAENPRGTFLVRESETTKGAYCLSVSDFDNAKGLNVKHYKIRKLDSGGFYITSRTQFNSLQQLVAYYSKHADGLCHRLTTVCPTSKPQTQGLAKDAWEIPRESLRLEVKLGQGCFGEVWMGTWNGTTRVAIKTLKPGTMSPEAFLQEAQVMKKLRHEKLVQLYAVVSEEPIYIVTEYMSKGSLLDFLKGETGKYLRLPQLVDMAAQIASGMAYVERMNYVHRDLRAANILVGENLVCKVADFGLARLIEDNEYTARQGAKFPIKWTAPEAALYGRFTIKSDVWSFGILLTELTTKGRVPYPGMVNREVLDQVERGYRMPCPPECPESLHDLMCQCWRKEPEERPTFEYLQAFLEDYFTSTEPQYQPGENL
c-Raf-1, sequence (P04049 whole entry): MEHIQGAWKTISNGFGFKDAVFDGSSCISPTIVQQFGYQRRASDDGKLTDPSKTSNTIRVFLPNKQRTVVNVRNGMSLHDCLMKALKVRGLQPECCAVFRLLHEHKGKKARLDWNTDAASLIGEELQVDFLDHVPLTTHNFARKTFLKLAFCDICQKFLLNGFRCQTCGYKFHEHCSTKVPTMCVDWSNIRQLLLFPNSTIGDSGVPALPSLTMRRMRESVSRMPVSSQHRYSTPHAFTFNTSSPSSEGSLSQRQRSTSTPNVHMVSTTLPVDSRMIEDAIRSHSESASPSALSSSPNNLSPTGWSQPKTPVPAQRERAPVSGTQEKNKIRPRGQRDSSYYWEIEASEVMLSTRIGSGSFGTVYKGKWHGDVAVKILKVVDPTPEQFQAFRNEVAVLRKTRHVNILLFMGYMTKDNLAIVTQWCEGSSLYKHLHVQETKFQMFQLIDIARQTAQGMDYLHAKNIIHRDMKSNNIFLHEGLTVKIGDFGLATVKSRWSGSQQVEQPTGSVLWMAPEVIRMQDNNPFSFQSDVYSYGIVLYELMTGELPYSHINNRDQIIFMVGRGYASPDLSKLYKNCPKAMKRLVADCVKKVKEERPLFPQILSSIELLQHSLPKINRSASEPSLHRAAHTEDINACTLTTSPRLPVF
B-Raf, sequence (P15056 whole entry): as the sequence (P15056 whole entry V600E) above, with E600V counted along it

IC50 (Kit) [µM] | IC50 (B-Raf) [µM] | IC50 (B-Raf V600E) [µM] | IC50 (Kdr) [µM] | IC50 (Fms) [µM] | IC50 (c-Raf-1) [µM] | IC50 (Src) [µM] | Structure (SMILES)
≤ 10 | ≤ 10 | ≤ 10 | ≤ 10 | ≤ 10 | ≤ 10 | – | O=C(c1c(F)ccc(NS(=O)(=O)c2csc3ccccc23)c1F)c1c[nH]c2ncc(Cl)cc12 [Compound P-0001, Benzo[b]thiophene-3-sulfonic acid [3-(5-chloro-1H-pyrrolo[2,3-b]pyridine-3-carbonyl)-2,4-difluoro-phenyl]-amide]
≤ 10 | ≤ 10 | ≤ 10 | ≤ 10 | ≤ 10 | ≤ 10 | ≤ 10 | Cc1cc(S(=O)(=O)Nc2ccc(F)c(C(=O)c3c[nH]c4ncc(Cl)cc34)c2F)c(C(F)(F)F)o1 [Compound P-0002, 5-Methyl-2-trifluoromethyl-furan-3-sulfonic acid [3-(5-chloro-1H-pyrrolo[2,3-b]pyridine-3-carbonyl)-2,4-difluoro-phenyl]-amide]
– | – | – | ≤ 10 | – | – | ≤ 10 | O=C(O)c1cccc(S(=O)(=O)Nc2ccc(F)c(C(=O)c3c[nH]c4ncc(Cl)cc34)c2F)c1 [Compound P-0004, 3-[3-(5-Chloro-1H-pyrrolo[2,3-b]pyridine-3-carbonyl)-2,4-difluoro-phenylsulfamoyl]-benzoic acid]
≤ 10 | – | – | ≤ 10 | – | ≤ 10 | ≤ 10 | O=C(c1c(F)ccc(NS(=O)(=O)c2ccc(-n3cccn3)cc2)c1F)c1c[nH]c2ncc(Cl)cc12 [Compound P-0008, N-[3-(5-Chloro-1H-pyrrolo[2,3-b]pyridine-3-carbonyl)-2,4-difluoro-phenyl]-4-pyrazol-1-yl-benzenesulfonamide]
≤ 10 | ≤ 10 | ≤ 10 | – | ≤ 10 | ≤ 10 | ≤ 10 | O=C(c1c(F)ccc(NS(=O)(=O)c2ccc3ncsc3c2)c1F)c1c[nH]c2ncc(Cl)cc12 [Compound P-0009, Benzothiazole-6-sulfonic acid [3-(5-chloro-1H-pyrrolo[2,3-b]pyridine-3-carbonyl)-2,4-difluoro-phenyl]-amide]
≤ 10 | – | – | ≤ 10 | ≤ 10 | – | ≤ 10 | Cn1cc(S(=O)(=O)Nc2ccc(F)c(C(=O)c3c[nH]c4ncc(Cl)cc34)c2F)c(C(F)(F)F)n1 [Compound P-0010, 1-Methyl-3-trifluoromethyl-1H-pyrazole-4-sulfonic acid [3-(5-chloro-1H-pyrrolo[2,3-b]pyridine-3-carbonyl)-2,4-difluoro-phenyl]-amide]
≤ 10 | ≤ 10 | – | ≤ 10 | ≤ 10 | ≤ 10 | ≤ 10 | CC(C)Oc1ccc(S(=O)(=O)Nc2ccc(F)c(C(=O)c3c[nH]c4ncc(Cl)cc34)c2F)cc1 [Compound P-0011, N-[3-(5-Chloro-1H-pyrrolo[2,3-b]pyridine-3-carbonyl)-2,4-difluoro-phenyl]-4-isopropoxy-benzenesulfonamide]
≤ 10 | ≤ 10 | ≤ 10 | ≤ 10 | ≤ 10 | ≤ 10 | – | CC(C)(C)c1ccc(S(=O)(=O)Nc2ccc(F)c(C(=O)c3c[nH]c4ncc(Cl)cc34)c2F)cc1 [Compound P-0014, 4-tert-Butyl-N-[3-(5-chloro-1H-pyrrolo[2,3-b]pyridine-3-carbonyl)-2,4-difluoro-phenyl]-benzenesulfonamide]
≤ 10 | ≤ 10 | ≤ 10 | – | ≤ 10 | ≤ 10 | ≤ 10 | CCCc1ccc(S(=O)(=O)Nc2ccc(F)c(C(=O)c3c[nH]c4ncc(Cl)cc34)c2F)cc1 [Compound P-0015, N-[3-(5-Chloro-1H-pyrrolo[2,3-b]pyridine-3-carbonyl)-2,4-difluoro-phenyl]-4-propyl-benzenesulfonamide]
≤ 10 | ≤ 10 | ≤ 10 | – | – | ≤ 10 | ≤ 10 | Cc1ccc2sc(S(=O)(=O)Nc3ccc(F)c(C(=O)c4c[nH]c5ncc(Cl)cc45)c3F)cc2c1 [Compound P-0017, 5-Methyl-benzo[b]thiophene-2-sulfonic acid [3-(5-chloro-1H-pyrrolo[2,3-b]pyridine-3-carbonyl)-2,4-difluoro-phenyl]-amide]
≤ 10 | ≤ 10 | – | ≤ 10 | – | ≤ 10 | ≤ 10 | COCCOc1cnc2[nH]cc(C(=O)c3c(F)ccc(NS(=O)(=O)c4ccc(C(C)C)cc4)c3F)c2c1 [Compound P-0018, N-{2,4-Difluoro-3-[5-(2-methoxy-ethoxy)-1H-pyrrolo[2,3-b]pyridine-3-carbonyl]-phenyl}-4-isopropyl-benzenesulfonamide]
≤ 10 | ≤ 10 | – | ≤ 10 | ≤ 10 | – | – | CCCc1ccc(S(=O)(=O)Nc2ccc(F)c(C(=O)c3c[nH]c4ncc(-c5ncc(C)n5C)cc34)c2F)cc1 [Compound P-0027, N-{3-[5-(1,5-Dimethyl-1H-imidazol-2-yl)-1H-pyrrolo[2,3-b]pyridine-3-carbonyl]-2,4-difluoro-phenyl}-4-propyl-benzenesulfonamide]
≤ 10 | ≤ 10 | ≤ 10 | ≤ 10 | ≤ 10 | – | ≤ 10 | Cc1ccc(S(=O)(=O)Nc2ccc(F)c(C(=O)c3c[nH]c4ncc(Cl)cc34)c2F)s1 [Compound P-0028, 5-Methyl-thiophene-2-sulfonic acid [3-(5-chloro-1H-pyrrolo[2,3-b]pyridine-3-carbonyl)-2,4-difluoro-phenyl]-amide]
≤ 10 | – | ≤ 10 | ≤ 10 | – | – | ≤ 10 | Cn1ccc(S(=O)(=O)Nc2ccc(F)c(C(=O)c3c[nH]c4ncc(Cl)cc34)c2F)n1 [Compound P-0029, 1-Methyl-1H-pyrazole-3-sulfonic acid [3-(5-chloro-1H-pyrrolo[2,3-b]pyridine-3-carbonyl)-2,4-difluoro-phenyl]-amide]
– | ≤ 10 | ≤ 10 | – | – | ≤ 10 | – | Cc1cnc2[nH]cc(C(=O)c3c(F)ccc(NS(=O)(=O)c4ccc(C(F)(F)F)cc4)c3F)c2c1 [Compound P-0030, N-[2,4-Difluoro-3-(5-methyl-1H-pyrrolo[2,3-b]pyridine-3-carbonyl)-phenyl]-4-trifluoromethyl-benzenesulfonamide]
≤ 10 | ≤ 10 | ≤ 10 | ≤ 10 | – | – | – | COC(=O)/C=C/c1cnc2[nH]cc(C(=O)c3c(F)ccc(NS(=O)(=O)c4ccc(C(F)(F)F)cc4)c3F)c2c1 [Compound P-0032, (E)-3-{3-[2,6-Difluoro-3-(4-trifluoromethyl-benzenesulfonylamino)-benzoyl]-1H-pyrrolo[2,3-b]pyridin-5-yl}-acrylic acid methyl ester]
– | ≤ 10 | ≤ 10 | – | – | – | – | COC(=O)CCc1cnc2[nH]cc(C(=O)c3c(F)ccc(NS(=O)(=O)c4ccc(C(F)(F)F)cc4)c3F)c2c1 [Compound P-0033, 3-{3-[2,6-difluoro-3-(4-trifluoromethyl-benzenesulfonylamino)-benzoyl]-1H-pyrrolo[2,3-b]pyridin-5-yl}-propionic acid methyl ester]
– | ≤ 10 | ≤ 10 | ≤ 10 | – | – | – | O=C(O)CCc1cnc2[nH]cc(C(=O)c3c(F)ccc(NS(=O)(=O)c4ccc(C(F)(F)F)cc4)c3F)c2c1 [Compound P-0034, 3-{3-[2,6-difluoro-3-(4-trifluoromethyl-benzenesulfonylamino)-benzoyl]-1H-pyrrolo[2,3-b]pyridin-5-yl}-propionic acid]
≤ 10 | ≤ 10 | ≤ 10 | – | ≤ 10 | – | – | CCNC(=O)CCc1cnc2[nH]cc(C(=O)c3c(F)ccc(NS(=O)(=O)c4ccc(C(F)(F)F)cc4)c3F)c2c1 [Compound P-0035, 3-{3-[2,6-Difluoro-3-(4-trifluoromethyl-benzenesulfonylamino)-benzoyl]-1H-pyrrolo[2,3-b]pyridin-5-yl}-N-ethyl-propionamide]
– | ≤ 10 | – | – | – | – | ≤ 10 | COc1cnc2[nH]cc(C(=O)c3c(F)ccc(NS(=O)(=O)c4ccccn4)c3F)c2c1 [Compound P-0036, Pyridine-2-sulfonic acid [2,4-difluoro-3-(5-methoxy-1H-pyrrolo[2,3-b]pyridine-3-carbonyl)-phenyl]-amide]

Structure (SMILES) | IC50 (Kit) [µM] | IC50 (B-Raf) [µM] | IC50 (B-Raf V600E) [µM] | IC50 (Kdr) [µM] | IC50 (Fms) [µM] | IC50 (c-Raf-1) [µM] | IC50 (Src) [µM]
CCCCOc1ccc(S(=O)(=O)Nc2ccc(F)c(C(=O)c3c[nH]c4ncc(Cl)cc34)c2F)cc1 [Compound P-0007, 4-Butoxy-N-[3-(5-chloro-1H-pyrrolo[2,3-b]pyridine-3-carbonyl)-2,4-difluoro-phenyl]-benzenesulfonamide] | ≤ 10 | ≤ 10 | ≤ 10 | – | – | ≤ 10 | –
